The values that follow come from publication PMC6151531, “Development of a Non-Hydroxamate Dual Matrix Metalloproteinase (MMP)-7/-13 Inhibitor” (Molecules : A Journal of Synthetic Chemistry and Natural …, 2017).

Several values for one entry are separate records, joined by “and”; a condition that tells them apart may be missing. Identical values can stand only once.

In assay [1] the target is MMP-13 (Homo sapiens, UniProt P45452). Nature of the assay: MMP-13 FRET peptide enzyme assay (single dose 10 μM and IC50). The assay is classed as biochemical. The conditions noted are these: measured in duplicate.
Experimental: (§1) The buffer consisted of 50 mM HEPES at pH 7.5 with 10 mM CaCl2 and 0.01% Brij-35. 0.1 mg/mL BSA (Sigma Aldrich, St. Louis, MO, USA) was added before use. As a control inhibitor GM6001 (ilomastat, Enzo Life Sciences, Farmingdale, NY, USA) was used. For selectivity examinations single dose duplicate assays were performed in the same manner as described above on the MMP-1, -2, -3, -8, -9, -12 and -14 isoforms.
Assay [2] addresses T1, MMP-1 (Homo sapiens, UniProt P03956).
T1 sequence (P03956 100-469): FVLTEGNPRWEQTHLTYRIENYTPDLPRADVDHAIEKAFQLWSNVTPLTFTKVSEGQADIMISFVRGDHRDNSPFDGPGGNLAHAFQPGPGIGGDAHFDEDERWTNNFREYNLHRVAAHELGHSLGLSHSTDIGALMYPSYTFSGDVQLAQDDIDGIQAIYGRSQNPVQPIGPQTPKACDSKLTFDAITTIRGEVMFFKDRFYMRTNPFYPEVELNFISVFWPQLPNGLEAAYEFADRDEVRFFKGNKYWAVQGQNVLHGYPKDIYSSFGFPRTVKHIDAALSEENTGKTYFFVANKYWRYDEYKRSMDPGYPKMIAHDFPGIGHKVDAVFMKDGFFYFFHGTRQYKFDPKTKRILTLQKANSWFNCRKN
The assay can be described thus: MMP-1 single dose selectivity assay. The conditions noted are these: read-out: Remaining enzymatic activity MMP-1.

The target in assay [3] is T2, MMP-2 (Homo sapiens, UniProt P08253).
T2 sequence (P08253 110-660): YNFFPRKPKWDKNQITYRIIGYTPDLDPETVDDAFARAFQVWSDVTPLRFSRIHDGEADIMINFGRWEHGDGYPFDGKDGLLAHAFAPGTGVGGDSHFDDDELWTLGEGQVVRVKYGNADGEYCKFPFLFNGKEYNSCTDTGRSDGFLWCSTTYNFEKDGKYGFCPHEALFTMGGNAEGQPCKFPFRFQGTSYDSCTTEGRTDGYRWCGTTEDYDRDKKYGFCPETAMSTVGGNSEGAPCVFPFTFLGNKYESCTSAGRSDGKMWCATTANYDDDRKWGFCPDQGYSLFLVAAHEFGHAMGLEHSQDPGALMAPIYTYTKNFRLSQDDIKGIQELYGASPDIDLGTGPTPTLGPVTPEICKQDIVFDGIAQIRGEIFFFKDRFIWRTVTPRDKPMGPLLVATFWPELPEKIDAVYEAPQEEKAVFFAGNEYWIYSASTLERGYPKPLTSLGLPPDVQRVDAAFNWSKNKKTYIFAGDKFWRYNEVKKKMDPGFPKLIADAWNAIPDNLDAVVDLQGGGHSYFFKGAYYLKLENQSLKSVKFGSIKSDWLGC
The assay can be described thus: MMP-2 single dose selectivity assay. Particulars: read-out: Remaining enzymatic activity MMP-2.

The target of assay [4] is MMP-3 (Homo sapiens, UniProt P08254). The assay can be described thus: MMP-3 single dose selectivity assay. The conditions noted are these: read-out: Remaining enzymatic activity MMP-3.
For assay [5], the target named is MMP-8 (Homo sapiens, UniProt P22894). Nature of the assay: MMP-8 single dose selectivity assay. Particulars: read-out: Remaining enzymatic activity MMP-8.
Experimental: (§2) The buffer consisted of 50 mM HEPES at pH 7.5 with 10 mM CaCl2 and 0.01% Brij-35. 0.1 mg/mL BSA (Sigma Aldrich, St. Louis, MO, USA) was added before use. As a control inhibitor GM6001 (ilomastat, Enzo Life Sciences, Farmingdale, NY, USA) was used.
Assay [6] concerns the target MMP-9 (Homo sapiens, UniProt P14780). The assay can be described thus: MMP-9 single dose selectivity assay. The conditions noted are these: read-out: Remaining enzymatic activity MMP-9.
Experimental: as §2
For assay [7], the target named is MMP-12 (Homo sapiens, UniProt P39900). Nature of the assay: MMP-12 single dose selectivity assay. The conditions noted are these: read-out: Remaining enzymatic activity MMP-12.
Experimental: as §2
The target of assay [8] is MMP-14 (Homo sapiens, UniProt P50281). The assay can be described thus: MMP-14 single dose selectivity assay. The conditions noted are these: read-out: Remaining enzymatic activity MMP-14.
Experimental: as §2
Assay [9] concerns the target T3, MMP-7 (Homo sapiens, UniProt P09237).
T3 sequence (P09237 95-267): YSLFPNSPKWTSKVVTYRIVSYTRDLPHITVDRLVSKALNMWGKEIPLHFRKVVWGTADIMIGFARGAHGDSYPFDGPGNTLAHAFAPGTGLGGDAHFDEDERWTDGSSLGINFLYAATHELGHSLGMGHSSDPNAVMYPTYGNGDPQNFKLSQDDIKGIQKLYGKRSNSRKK
The assay can be described thus: MMP-7 FRET peptide enzyme assay (single dose 10 μM and IC50). The conditions noted are these: IC50 MMP-7, measured in duplicate.
Experimental: as §1

Chain of MMP-3 (P08254 100-477): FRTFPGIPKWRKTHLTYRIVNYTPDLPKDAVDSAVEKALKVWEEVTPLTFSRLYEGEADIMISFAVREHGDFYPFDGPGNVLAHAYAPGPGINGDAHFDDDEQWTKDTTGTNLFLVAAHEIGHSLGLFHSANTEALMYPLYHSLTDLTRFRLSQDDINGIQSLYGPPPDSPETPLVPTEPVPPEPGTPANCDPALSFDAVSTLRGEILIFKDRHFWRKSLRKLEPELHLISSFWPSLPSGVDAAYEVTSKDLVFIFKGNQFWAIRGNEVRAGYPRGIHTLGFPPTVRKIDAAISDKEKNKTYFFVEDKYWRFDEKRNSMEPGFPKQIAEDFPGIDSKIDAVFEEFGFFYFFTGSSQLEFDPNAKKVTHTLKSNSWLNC
Chain of MMP-9 (P14780 94-707): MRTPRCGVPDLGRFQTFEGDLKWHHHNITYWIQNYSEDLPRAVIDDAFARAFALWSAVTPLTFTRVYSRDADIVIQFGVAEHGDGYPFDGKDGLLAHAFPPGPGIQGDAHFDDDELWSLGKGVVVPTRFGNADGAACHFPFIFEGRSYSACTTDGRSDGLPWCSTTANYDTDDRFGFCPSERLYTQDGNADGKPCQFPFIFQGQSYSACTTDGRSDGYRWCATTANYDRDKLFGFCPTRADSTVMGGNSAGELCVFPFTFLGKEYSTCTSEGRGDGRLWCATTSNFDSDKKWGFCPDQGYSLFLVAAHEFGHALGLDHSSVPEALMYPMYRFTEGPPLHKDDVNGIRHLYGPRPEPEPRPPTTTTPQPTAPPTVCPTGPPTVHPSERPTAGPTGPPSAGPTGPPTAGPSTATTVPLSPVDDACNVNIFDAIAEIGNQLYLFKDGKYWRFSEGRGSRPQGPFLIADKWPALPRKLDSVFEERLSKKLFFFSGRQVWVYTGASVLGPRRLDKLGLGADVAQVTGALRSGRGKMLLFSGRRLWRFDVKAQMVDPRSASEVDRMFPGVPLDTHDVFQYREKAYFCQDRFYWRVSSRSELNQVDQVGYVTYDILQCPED
Chain of MMP-12 (P39900 106-470): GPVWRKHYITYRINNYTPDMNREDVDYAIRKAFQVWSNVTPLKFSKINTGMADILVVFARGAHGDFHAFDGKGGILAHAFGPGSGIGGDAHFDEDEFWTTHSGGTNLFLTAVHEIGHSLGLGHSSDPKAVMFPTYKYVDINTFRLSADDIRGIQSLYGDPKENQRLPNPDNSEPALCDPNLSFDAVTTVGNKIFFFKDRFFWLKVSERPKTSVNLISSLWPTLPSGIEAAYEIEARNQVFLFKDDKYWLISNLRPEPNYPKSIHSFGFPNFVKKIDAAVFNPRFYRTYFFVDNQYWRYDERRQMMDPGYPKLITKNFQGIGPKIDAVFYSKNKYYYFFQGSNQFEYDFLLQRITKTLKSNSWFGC
Chain of MMP-8 (P22894 101-467): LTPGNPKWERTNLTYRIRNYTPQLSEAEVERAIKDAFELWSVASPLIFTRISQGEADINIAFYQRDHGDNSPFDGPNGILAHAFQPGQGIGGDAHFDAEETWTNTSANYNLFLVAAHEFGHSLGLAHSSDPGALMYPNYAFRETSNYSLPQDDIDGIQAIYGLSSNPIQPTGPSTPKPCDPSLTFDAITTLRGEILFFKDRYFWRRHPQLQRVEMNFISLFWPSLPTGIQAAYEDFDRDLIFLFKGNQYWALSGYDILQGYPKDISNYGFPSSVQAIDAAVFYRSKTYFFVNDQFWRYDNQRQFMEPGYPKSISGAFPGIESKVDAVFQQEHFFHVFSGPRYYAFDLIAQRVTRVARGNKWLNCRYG

One may read the IC50 as the midpoint of a concentration-inhibition curve. High values mean weaker potency in that assay, low ones greater potency in that assay. The remaining activity is the signal under treatment as a percentage of the control signal. In the case of `O=C(O)CCCCCCCCOc1ccc(CC(=O)Nc2ccc3c(c2)C(=O)N(Cc2ccccc2)C3=O)cc1` [Compound 14i, 9-(4-{[(2-Benzyl-1,3-dioxo-2,3-dihydro-1H-isoindol-5-yl)carbamoyl]methyl}phenoxy)nonanoic acid], the IC50 in assay [1] is 1.2 µM and 1.25 µM; in assay [9], 2.2 µM and 2.25 µM. Besides, the remaining activity at 10 µM in assay [2] turned out to be 100%; in [3], 98%; in [4], 73%; in assay [5], 80%; in assay [6], 87%; in assay [7], 97%. Besides, in [8], the remaining activity at 10 µM was 91%.
